Measurements published in publication PMC9497102, “Thiosemicarbazone Derivatives Developed to Overcome COTI-2 Resistance” (Cancers, 2022).
Values after ≈ are worked out from the molar mass of the structure shown. Like-named read-outs stand apart in the source and are kept apart here.

What was measured:
[1] = Thermodynamic solubility in water at pH 7.4 (UV-vis); format: physicochemical; conditions: water at pH 7.4 (20 mM HEPES buffer), aqueous buffer, thermodynamic from solid, water pH 7.4 (20 mM HEPES), 25 °C, read-out: S (meas.)
Protocol: The thermodynamic solubility of COTI-NMeCy, COTI-Nme2, COTI-NH2, and COTI-2 was measured for the saturated solutions in water at pH 7.4 (20 mM HEPES buffer) at 25.0 ± 0.1 °C. The concentrations of the compounds were determined by UV-vis spectrophotometry using stock solutions of the compounds with known concentrations dissolved in pure DMSO, and 50% and 1% (v/v) DMSO/buffered aqueous solution for the calibration. The parallel artificial membrane permeability assay (PAMPA) was applied for the ligands with a Corning Gentest pre-coated PAMPA Plate System. Peff values were calculated according to the equation reported by Yu et al..

[2] = Cyclic voltammetry of copper(II)–ligand (1:1) systems; format: physicochemical; conditions: cL = cCu(II) = 1 mM, pH 7.40, 25 °C, 90% (v/v) DMSO/H2O, 0.01 V/s scan rate
Protocol: Cyclic voltammograms for the Fe(III) and Cu(II) complexes were recorded in 90% (v/v) DMSO/water solution containing 1 mM ligand and 0.5 mM FeCl3 or 1 mM CuCl2 using a conventional three-electrode system under nitrogen atmosphere and a PC-Controlled Electrochemical Measurement System (EF 451). The ionic strength was 0.10 M, adjusted by TBAN. Samples were purged for 15 min with Ar before recording the cyclic voltammograms. Platinum electrodes were used as the working and auxiliary electrodes, and Ag/AgCl (3 M KCl) was applied as the reference electrode. The electrochemical potentials were converted into the normal hydrogen electrode (NHE) scale by adding 0.222 V. The instrument was calibrated with an aqueous solution of K3[Fe(CN)6] (E1/2 = +0.386 V vs. NHE). Redox potentials were obtained at different scan rates (5–25 mV/s) in the range of −0.8 to +0.1 V. The dependence of the peak current values of the square root of the scan rates is shown in Figure S5 for the iron and copper complexes of COTI-NMeCy.

[3] = Iron(III) complex formation, UV-vis spectrophotometric titrations; format: physicochemical; conditions: for pFe(III)*: Fe(III) hydroxido species also considered as unbound metal, cFe = 1 μM; for pFe(III)* / pFe(III): cL = 10 μM, pH = 7.40; for pFe(III): –log[free Fe(III)] calculated at cFe = 1 μM
Protocol: (§1) The UV-vis spectra were recorded using an Agilent Cary 8454 diode array spectrophotometer in the 200 to 950 nm window, and the path length was varied between 1 and 5 cm, depending on the solubility (thus the applicable concentration). For the spectrophotometric titrations, the same instruments (Metrohm 665 Dosimat burette, Orion 710A pH-meter, Metrohm combined pH glass electrode) and experimental setup (ionic strength: 0.10 M (KCl); titrant: 0.10 M carbonate-free KOH solution in 30% (v/v) DMSO/H2O; samples: prepared in 30% (v/v) DMSO/H2O; calibration: method of Irving et al.; pH range: 1.0 to 13.5; and sample volume: 10 cm^3) were used as in our previous work. Argon overpressure was used for the Fe(II)-containing samples when the Fe(II) stock solution was added to the samples in tightly closed titration vessels, which were previously completely deoxygenated (for 20 min). Measurements were taken with ligands (10–80 μM, depending on solubility) in the presence of 1, 0.5, and 0.3 equiv. of Cu(II), Fe(II), and Fe(III) ions. Equilibrium constants, such as the proton dissociation constants (pKa) of the ligands, the overall stability constants (logβ) of the metal complexes, and the UV-vis spectra of the individual ligand or complex species were computed using the program PSEQUAD [18], as was the case in our previous works.

SW480 cells = assay: MTT viability assay in combination with copper chelator TTM; format: cell-based, human; conditions: TTM 1 µM and 5 µM, 72 h
Protocol: For the cytotoxicity, cell viability, and proliferation studies, the 3-(4,5-dimethylthiazol-2-yl)-2,5-diphenyltetrazolium bromide (MTT) assay was utilized. Cells were seeded in 96-well plates at a density of 2 × 10^4 cells/well, with the exception of SW480/Tria, which was used at a density of 3 × 10^4 cells/well. After 24 h of recovery, cells were treated with the indicated concentration of drugs. For the drug combination experiments, verapamil and cyclosporine A (CSA) were used as […] modulators, and tetrathiomolybdate (TTM) was used as a copper chelator. The TSCs were dissolved in DMSO followed by subsequent dilutions in the medium in order to maintain a final DMSO concentration of <1%. After 72 h, the treatment solution was removed and replaced with 100 µL of MTT solution (EZ4U, Biomedica, Vienna, Austria), which was diluted 1:10 in the growth medium. A TECAN Infinite 200 Pro plate reader was used to measure the absorbance of the solution after 2–3 h incubation at 5% CO2 in an incubator at 37 °C. The anticancer activity was determined with GraphPad Prism software and indicated as IC50 values (half maximum inhibitory concentration).

[4] = Zinc(II) complex formation, UV-vis spectrophotometric titrations; format: physicochemical; conditions: for pZn: calculated at cM = 1 μM, cL = 10 μM, pH = 7.40
[5] = Copper(II) complex formation, UV-vis titrations and EDTA competition; format: physicochemical; conditions: for pCu: calculated at cM = 1 μM, cL = 10 μM, pH = 7.40; for logβ5.9′ [CuL]^+: conditional stability constant, EDTA competition at pH = 5.90; for logβ [CuL]^+: β = β’ × αH, [H+] = 10^–5.90 M
Protocol: as §1
The conditional stability constants (β’) of the Cu(II) complexes were calculated from competition reactions with EDTA at pH = 5.9 using MES (50 mM) when the metal:ligand ratio was 1:1 (clig = cCu between 10 and 80 μM). Individual samples were prepared in which the ligand:EDTA ratio was variable between 1:0 and 1:50. After a 3 h incubation period, UV-vis spectra were collected. The calculation of the β’ (CuL) values was performed following the same method as that in our previous work using the logβ’5.90 = 13.89 of complex [Cu(EDTA)]^2− obtained from the previously reported equilibrium constants of EDTA and its Cu(II) complex.

[6] = pKa by UV-vis spectrophotometric titrations; format: physicochemical; conditions: 30% (v/v) DMSO/H2O solution, I = 0.1 M (KCl), 25 °C
Protocol: as §1

[7] = Iron(II) complex formation, UV-vis spectrophotometric titrations (anaerobic); format: physicochemical; conditions: for pFe(II): –log[free Fe(II)] calculated at cFe = 1 μM, cL = 10 μM, pH = 7.40
Protocol: as §1

[8] = T = 25.0 °C, I = 0.10 M (KCl), 30% (v/v) DMSO/H2O

Row | solubility thermodynamic [1] [µM] | E′ vs. NHE, copper(II)–ligand (1:1) systems [2] [V] | pFe(III)* [3] | logβ [Fe(III)L2]^+ [3, 8] | logβ [Fe(III)L]^2+ [3, 8] | pFe(III) [3] | logβ [ZnL2] [4, 8] | logβ [ZnL]^+ [4, 8] | pZn [4] | pCu [5] | logβ5.9′ [CuL]^+ [5] | logβ [CuL]^+ [5] | pKa ([6]; read-out: pKa (H2L)) | pKa ([6]; read-out: pKa (HL)) | logβ [Fe(II)L2] [7, 8] | logβ [Fe(II)L]^+ [7, 8] | pFe(II) [7] | Structure (SMILES) | impact of copper chelator TTM on anticancer activity (SW480 cells) | other results
1 | 417 | -0.24 | 11.1 | 32.77 ± 0.03 | 17.25 ± 0.02 | 19.2 | 25.24 ± 0.08 | 13.02 ± 0.04 | 11.7 | 14.7 | 12.23 ± 0.05 | 18.42 | 3.65 ± 0.01 | 12.09 ± 0.01 | 31.33 ± 0.09 | 17.62 ± 0.03 | 17.8 | CN(C)C(=S)NN=C1CCCc2cccnc21 (mixture of isomers) [COTI-NMe2, 2-(6,7-Dihydroquinolin-8(5H)-ylidene)-N^4,N^4-dimethylhydrazine-1-carbothioamide] | strong protective activity | 
2 | 0.41 (≈ 0.15 µg/mL) | -0.19 | 10.6 | 29.98 ± 0.06 | 18.02 ± 0.03 | 18.6 | 23.23 ± 0.08 | 12.85 ± 0.02 | 11.9 | 15.6 | 13.06 ± 0.02 | 18.19 | 5.08 ± 0.01 | 10.97 ± 0.01 | 30.63 ± 0.09 | 18.28 ± 0.06 | 19.3 | S=C(N/N=C1\CCCc2cccnc21)N1CCN(c2ccccn2)CC1 [COTI-2, 4-(pyridine-2-yl)-N-([(8E)-5,6,7,8-tetrahydroquinolin-8-ylidene]amino)piperazine-1-carbothioamide] | strong protective activity | logβ [Fe(III)LH]^3+ [3, 8]: 21.16 ± 0.03; free ligand in the presence of iron(III) ([3]; calculated distribution, 1 µM COTI-2, 2:1 ligand:iron(III), pH 7.4): 10–20%; logβ [ZnLH]^2+ [4, 8]: 18.54 ± 0.02; free ligand in the presence of zinc(II) ([4]; calculated distribution, 1 µM COTI-2, 2:1 ligand:zinc(II), pH 7.4): 10–20%; pKa ([6]; read-out: pKa (H3L)): 3.23 ± 0.01; logβ [Fe(II)L2H2]^2+ [7, 8]: 41.18 ± 0.06; logβ [Fe(II)L2H]^+ [7, 8]: 36.74 ± 0.09; logβ [Fe(II)LH]^2+ [7, 8]: 21.00 ± 0.03
3 | 3.9 (≈ 1.23 µg/mL) | -0.22 | 9.9 | 32.20 ± 0.03 | 17.06 ± 0.02 | 18.0 | 26.32 ± 0.09 | 12.94 ± 0.04 | 12.1 | 15.0 | 12.56 ± 0.09 | 19.08 | 3.47 ± 0.01 | 12.4 ± 0.01 | 31.04 ± 0.03 | 18.66 ± 0.03 | 16.9 | CN(C(=S)N/N=C1\CCCc2cccnc21)C1CCCCC1 [COTI-NMeCy, N-Cyclohexyl-2-(6,7-dihydroquinolin-8(5H)-ylidene)-N^4-methylhydrazine-1-carbothioamide] | strong protective activity | 
